Source: PubChem BioAssay (NCI)
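The compound was tested at five concentrations on cells cultured in 96-well plates, with a 48-hour exposure period. GI50 is the concentration that inhibits growth by half. TGI denotes the concentration required for complete inhibition of growth.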

Assays:
Experiment in all cases: growth of human tumour cells (NCI), 48 h
[1] = system: MDA-MB-435
[2] = system: BT-549 breast
[3] = system: NCI-H522 lung
[4] = system: ACHN renal
[5] = system: HOP-62 NSCLC
[6] = system: MOLT-4 leukemia
[7] = system: IGROV1 ovarian
[8] = system: M14 melanoma
[9] = system: PC-3 prostate
[10] = system: SK-MEL-28 melanoma
[11] = system: HL-60(TB) leukemia
[12] = system: SF-539 CNS
[13] = system: HOP-92 NSCLC
[14] = system: K-562 leukemia
[15] = system: OVCAR-4 ovarian
[16] = system: NCI-H23 lung
[17] = system: NCI-H460 lung
[18] = system: CAKI-1 renal
[19] = system: COLO 205 colon
[20] = system: DU-145 prostate
[21] = system: MCF7 breast
[22] = system: CCRF-CEM leukemia
[23] = system: HS 578T breast
[24] = system: NCI/ADR-RES ovarian
[25] = system: OVCAR-3 ovarian
[26] = system: SN12C renal
[27] = system: SNB-19 CNS
[28] = system: 786-0 renal
[29] = system: SK-OV-3 ovarian
[30] = system: A498 renal
[31] = system: RPMI-8226 leukemia
[32] = system: HCT-116 colon
[33] = system: MALME-3M melanoma
[34] = system: HT29 colon
[35] = system: TK-10 renal
[36] = system: SF-295 CNS
[37] = system: SW-620 colon
[38] = system: OVCAR-8 ovarian
[39] = system: UACC-62 melanoma
[40] = system: SF-268 CNS
[41] = system: KM12 colon
[42] = system: OVCAR-5 ovarian
[43] = system: UO-31 renal
[44] = system: RXF 393 renal
[45] = system: HCC-2998 colon
[46] = system: EKVX NSCLC
[47] = system: HCT-15 colon
[48] = system: T-47D breast
[49] = system: A549 NSCLC
[50] = system: SNB-75 CNS
[51] = system: SK-MEL-2 melanoma
[52] = system: U251 CNS
[53] = system: MDA-MB-231 breast
[54] = system: NCI-H226 lung
[55] = system: SK-MEL-5 melanoma
[56] = system: UACC-257 melanoma
[57] = system: LOX IMVI melanoma
[58] = system: SR leukemia

COc1ccc(-c2ccc(/C=N/n3c(C)n[nH]c3=S)o2)c([N+](=O)[O-])c1
GI50 [1]: > 100 µM | TGI [1]: > 100 µM | GI50 [2]: > 100 µM | TGI [2]: > 100 µM | GI50 [3]: > 100 µM | TGI [3]: > 100 µM | GI50 [4]: 93 µM | TGI [4]: > 100 µM | GI50 [5]: 46 µM | TGI [5]: > 100 µM | GI50 [6]: > 100 µM | TGI [6]: > 100 µM | GI50 [7]: > 100 µM | TGI [7]: > 100 µM | GI50 [8]: > 100 µM | TGI [8]: > 100 µM | GI50 [9]: > 100 µM | TGI [9]: > 100 µM | GI50 [10]: > 100 µM | TGI [10]: > 100 µM | GI50 [11]: > 100 µM | TGI [11]: > 100 µM | GI50 [12]: 39.4 µM | TGI [12]: > 100 µM | GI50 [13]: 12.4 µM | TGI [13]: 45.4 µM | GI50 [14]: > 100 µM | TGI [14]: > 100 µM | GI50 [15]: > 100 µM | TGI [15]: > 100 µM | GI50 [16]: > 100 µM | TGI [16]: > 100 µM | GI50 [17]: > 100 µM | TGI [17]: > 100 µM | GI50 [18]: > 100 µM | TGI [18]: > 100 µM | GI50 [19]: > 100 µM | TGI [19]: > 100 µM | GI50 [20]: > 100 µM | TGI [20]: > 100 µM | GI50 [21]: > 100 µM | TGI [21]: > 100 µM | GI50 [22]: > 100 µM | TGI [22]: > 100 µM | GI50 [23]: > 100 µM | TGI [23]: > 100 µM | GI50 [24]: > 100 µM | TGI [24]: > 100 µM | GI50 [25]: > 100 µM | TGI [25]: > 100 µM | GI50 [26]: > 100 µM | TGI [26]: > 100 µM | GI50 [27]: > 100 µM | TGI [27]: > 100 µM | GI50 [28]: 91.1 µM | TGI [28]: > 100 µM | GI50 [29]: > 100 µM | TGI [29]: > 100 µM | GI50 [30]: > 100 µM | TGI [30]: > 100 µM | GI50 [31]: > 100 µM | TGI [31]: > 100 µM | GI50 [32]: > 100 µM | TGI [32]: > 100 µM | GI50 [33]: 54.1 µM | TGI [33]: > 100 µM | GI50 [34]: > 100 µM | TGI [34]: > 100 µM | GI50 [35]: 69.1 µM | TGI [35]: > 100 µM | GI50 [36]: 36.3 µM | TGI [36]: > 100 µM | GI50 [37]: > 100 µM | TGI [37]: > 100 µM | GI50 [38]: 84 µM | TGI [38]: > 100 µM | GI50 [39]: > 100 µM | TGI [39]: > 100 µM | GI50 [40]: 47.5 µM | TGI [40]: > 100 µM | GI50 [41]: > 100 µM | TGI [41]: > 100 µM | GI50 [42]: > 100 µM | TGI [42]: > 100 µM | GI50 [43]: > 100 µM | TGI [43]: > 100 µM | GI50 [44]: 32.8 µM | TGI [44]: > 100 µM | GI50 [45]: > 100 µM | TGI [45]: > 100 µM | GI50 [46]: > 100 µM | TGI [46]: > 100 µM | GI50 [47]: > 100 µM | TGI [47]: > 100 µM | GI50 [48]: > 100 µM | TGI [48]: > 100 µM | GI50 [49]: > 100 µM | TGI [49]: > 100 µM

C=CC1CC1(CO)COc1cc(Cl)nc(N)n1 (stereo unspecified)
GI50 [50]: 86.4 µM

Cc1cc2c(cc1Cl)SC(=Nc1ccc(Cl)cc1)N(S(=O)(=O)c1ccccc1)S2(=O)=O
GI50 [1]: 5.18 µM | TGI [1]: 19.6 µM | GI50 [51]: 11.8 µM | TGI [51]: 27.6 µM | GI50 [2]: 11.1 µM | TGI [2]: 24.5 µM | GI50 [3]: 12.4 µM | TGI [3]: 52.8 µM | GI50 [4]: 1.95 µM | TGI [4]: 10.5 µM | GI50 [5]: 13.5 µM | TGI [5]: 26.4 µM | GI50 [7]: 2.55 µM | TGI [7]: 31.7 µM | GI50 [8]: 12.6 µM | TGI [8]: 27.6 µM | GI50 [9]: 10.9 µM | TGI [9]: 23.1 µM | GI50 [10]: 12.2 µM | TGI [10]: 63.5 µM | GI50 [52]: 5.96 µM | TGI [52]: 19.5 µM | GI50 [11]: 11.7 µM | TGI [11]: 32.7 µM | GI50 [12]: 1.03 µM | TGI [12]: 3.53 µM | GI50 [13]: 5.39 µM | TGI [13]: 26.1 µM | GI50 [14]: 9.19 µM | TGI [14]: 58.2 µM | GI50 [15]: 11 µM | TGI [15]: 64.3 µM | GI50 [16]: 1.55 µM | TGI [16]: 5.96 µM | GI50 [17]: 11.8 µM | TGI [17]: 29.2 µM | GI50 [18]: 5.37 µM | TGI [18]: 23.4 µM | GI50 [19]: 2.89 µM | TGI [19]: > 100 µM | GI50 [20]: 12.6 µM | TGI [20]: 25.1 µM | GI50 [21]: 6.05 µM | TGI [21]: 22.4 µM | GI50 [22]: 4.92 µM | TGI [22]: 27.4 µM | GI50 [23]: 20.7 µM | TGI [23]: 45.9 µM | GI50 [24]: 5.25 µM | TGI [24]: 19.3 µM | GI50 [25]: 1.55 µM | TGI [25]: 7.11 µM | GI50 [26]: 13.8 µM | TGI [26]: 28.7 µM | GI50 [27]: 20.6 µM | TGI [27]: > 100 µM | GI50 [28]: 4.54 µM | TGI [28]: 18.1 µM | GI50 [29]: 12 µM | TGI [29]: 44.4 µM | GI50 [31]: 2.67 µM | TGI [31]: 14.7 µM | GI50 [32]: 9.78 µM | TGI [32]: 21.5 µM | GI50 [35]: 11.9 µM | TGI [35]: 24.6 µM | GI50 [36]: 13.2 µM | TGI [36]: 32.6 µM | GI50 [37]: 5.63 µM | TGI [37]: 17.4 µM | GI50 [38]: 12.4 µM | TGI [38]: 30.8 µM | GI50 [39]: 11.6 µM | TGI [39]: 23.8 µM | GI50 [40]: 13.8 µM | TGI [40]: 34.8 µM | GI50 [41]: 20 µM | TGI [41]: 50.4 µM | GI50 [42]: 4.43 µM | TGI [42]: 18.7 µM | GI50 [53]: 2.79 µM | TGI [53]: 16 µM | GI50 [43]: 13.5 µM | TGI [43]: 32.7 µM | GI50 [54]: 11.5 µM | TGI [54]: 35.4 µM | GI50 [44]: 17.2 µM | TGI [44]: 48.2 µM | GI50 [55]: 6.82 µM | TGI [55]: 19.2 µM | GI50 [56]: 17.4 µM | TGI [56]: 34.9 µM | GI50 [57]: 1.58 µM | TGI [57]: 7.18 µM | GI50 [46]: 15.1 µM | TGI [46]: 29.3 µM | GI50 [58]: 0.342 µM | TGI [58]: > 100 µM | GI50 [47]: 2.77 µM | TGI [47]: 13 µM | GI50 [49]: 13.7 µM | TGI [49]: 32.2 µM
